Drawing on patent publication US20260206761A1, “HETEROARYL-TRIAZOLE COMPOUNDS AS PESTICIDES” (Bayer Aktiengesellschaft, priority 2019, published 2026), this text covers pest or weed control and mortality for six compounds.

Common to all, as to assay type: in vivo
Test [1] has as its system adult engorged female ticks (Rhipicephalus microplus). The test is described as follows: Rhipicephalus (Boophilus) microplus injection test. The following applies: 168 h, egg deposition after 7 days, read-out: activity (efficacy: infertile eggs); for pest or weed control at 4 pg: application rate 4 pg/animal; for pest or weed control at 0.02 mg: application rate 20 μg/animal. An outline of the steps: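 Abdominal injection, 1 μL compound/DMSO, n=5 engorged adult females; climate-chamber incubation. Readout d7: fertile egg laying; doubtful eggs held to hatch (~42 d). % efficacy = infertile eggs (100% all infertile).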

The test system of test [2] is adult cat fleas (Ctenocephalides felis). The test is described as follows: Ctenocephalides felis in-vitro contact test, adult cat flea. The following applies: application rate 5 μg/cm^2 (=500 g/ha), after 48 hours, read-out: activity (efficacy: fleas dead or moribund). The gist of the method:
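Efficacy, as % of fleas dead or moribund, was read 48 h after 5-10 adult cat fleas were confined in glass tubes whose walls carried dried compound film (900 ppm, […]). Fleas failing to escape upward from a 45-50° C plate within 5 min counted as dead or moribund.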

In test [3] the test system is green peach aphid (Myzus persicae). The test can be described thus: Myzus persicae spray test. The following applies: 120 h, after 5 days; for mortality at 100 g/ha: application rate 100 g/ha; for mortality at 500 g/ha: application rate 500 g/ha. An outline of the steps: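 Chinese cabbage leaf disks carrying all instars of M. persicae sprayed with compound in acetone/DMF, diluted in water with 1000 ppm alkylarylpolyglycol ether emulsifier. Percent mortality scored after 5 days (100% = all aphids killed).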

Test [4] has as its system fall armyworm larvae (Spodoptera frugiperda). The test can be described thus: Spodoptera frugiperda spray test. The following applies: 168 h, read-out: activity (mortality). The gist of the method:
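Larvae of fall armyworm placed on dried maize leaf sections previously sprayed with emulsified compound (acetone/DMF solvent, water with 1000 ppm emulsifier). Percent of caterpillars killed recorded on day 7, 0–100% scale.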

Test [5] has as its system green peach aphid (Myzus persicae). The test is described as follows: Myzus persicae oral test. The following applies: 120 h, application rate 4 ppm, after 5 days. An outline of the steps:
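Aphids of mixed population ingest the compound preparation by sucking through a parafilm sheet stretched over wells holding test solution plus IPL41 insect medium (33%+15% sugar). Kill rate in percent is determined five days later.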

For test [6], the system named is Rhipicephalus microplus larvae (strain Parkhurst, resistant against synthetic pyrethroids). The test can be described thus: Rhipicephalus (Boophilus) microplus in-vitro contact test, larval cattle tick. The following applies: after 48 hours, read-out: activity (efficacy: larvae dead or moribund); for pest or weed control at 100 g/ha: application rate 1 pg/cm^2 (=100 g/ha); for pest or weed control at 500 g/ha: application rate 5 pg/cm^2 (=500 g/ha). The gist of the method:
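Larvae (20-50 per tube) exposed to dry compound film on glass tube walls, 5 μg/cm^2 at 900 ppm, applied from acetone. After 48 h at 27° C./85% RH, tubes tapped and negative geotaxis scored; efficacy as percent dead or moribund larvae.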

Test [7] concerns adult unfed cat fleas (Ctenocephalides felis). The test can be described thus: Ctenocephalides felis oral test. The following applies: 48 h, read-out: activity (mortality). An outline of the steps: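 About 20 adult unfed fleas fed through parafilm on cattle blood containing compound (DMSO stock diluted in blood), blood held at 37 °C and fleas at room temperature. Mortality (%) scored after 2 days.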

Test [8] relates to larvae of the southern green stink bug (Nezara viridula). The test is described as follows: Nezara viridula spray test. The following applies: 96 h, after 4 days; for mortality at 100 g/ha: application rate 100 g/ha; for mortality at 500 g/ha: application rate 500 g/ha. The gist of the method: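 Larva-infested barley (Hordeum vulgare) plants received a spray of test solution prepared from an acetone/DMF concentrate diluted in emulsifier-containing water (1000 ppm). Percent kill read 4 days later; 0% means no stink bugs dead.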

Broadly, the mortality is the percentage killed. `C[C@H](NC(=O)c1cc(Cl)cc(S(=O)(=O)C(F)F)c1)c1ncnn1-c1ncccn1` [II-34]: in test [1], the pest or weed control at 4 pg was 100% and the pest or weed control at 0.02 mg was determined as 100%. In addition, the pest or weed control at 5 µg/cm2 in test [2] amounted to 100%. In test [3], this compound yielded a mortality at 100 g/ha of 100% and a mortality at 500 g/ha of 100%. Also, in test [4], the mortality at 100 g/ha stood at 83% and the mortality at 500 g/ha is 100%. In test [5], this compound yielded a mortality at 4 ppm of 100%. Moreover, in test [6], the pest or weed control at 100 g/ha is 100% and the pest or weed control at 500 g/ha was determined as 90%. In test [7], the mortality at 100 ppm stood at 100%. For the same compound, in test [8], the mortality at 100 g/ha is 100% and the mortality at 500 g/ha is 100%.

As to `Cc1nc([C@H](C)NC(=O)c2cc(Cl)cc(S(=O)(=O)C(F)F)c2)n(-c2ccc(Cl)cn2)n1` [II-36], in test [1], the pest or weed control at 4 pg is 100% and the pest or weed control at 0.02 mg was found to be 100%. The pest or weed control at 5 µg/cm2 in test [2] came to 100%. In addition, in test [3], the mortality at 500 g/ha came out at 90%. Also, in test [4], the mortality at 100 g/ha stood at 100% and the mortality at 500 g/ha is 100%. In test [5], the mortality at 4 ppm came out at 100%. Moreover, in test [6], the pest or weed control at 100 g/ha worked out at 100% and the pest or weed control at 500 g/ha worked out at 100%. Further, the mortality at 100 ppm in test [7] was determined as 100%. In test [8], this compound had a mortality at 100 g/ha of 100% and a mortality at 500 g/ha of 100%.

`C[C@H](NC(=O)c1cc(C(F)(F)F)cc(C2(C#N)CC2)c1)c1ncnn1-c1ccc(C#N)cn1` [II-47]: the pest or weed control at 4 pg in test [1] is 100%. In addition, the pest or weed control at 0.02 mg in test [1] worked out at 100%. For the same compound, the pest or weed control at 5 µg/cm2 in test [2] worked out at 100%. Besides, the mortality at 100 g/ha in test [3], in test [4] and in test [8] was 100% throughout. Besides, the mortality at 4 ppm in test [5] came out at 100%. Moreover, the pest or weed control at 100 g/ha in test [6] turned out to be 100%. The pest or weed control at 500 g/ha in test [6] was found to be 100%. The mortality at 100 ppm in test [7] was 100%.

In the case of `C[C@H](NC(=O)c1cc(C(F)(F)F)cc(C2(C#N)CC2)c1)c1ncnn1-c1ccc(Cl)cn1` [II-48], in test [1], the pest or weed control at 4 pg turned out to be 100%. For the same compound, the pest or weed control at 0.02 mg in test [1] turned out to be 100%. Besides, in test [2], the pest or weed control at 5 µg/cm2 was 90%. In addition, the mortality at 100 g/ha in test [3], in test [4] and in test [8] was 100% throughout. Also, the mortality at 4 ppm in test [5] was determined as 100%. For the same compound, in test [6], the pest or weed control at 100 g/ha is 100%. In addition, the pest or weed control at 500 g/ha in test [6] stood at 100%. In test [7], the mortality at 100 ppm came to 100%.

Take `Cc1nc([C@H](C)NC(=O)c2cc(C(F)(F)F)cc(C3(C#N)CC3)c2)n(-c2ccc(C#N)cn2)n1` [II-49]: in test [1], the pest or weed control at 4 pg was determined as 100% and the pest or weed control at 0.02 mg came to 100%. Moreover, the pest or weed control at 5 µg/cm2 in test [2] was determined as 100%. Moreover, the mortality at 100 g/ha in test [3] stood at 100%. Moreover, the mortality at 100 g/ha in test [4] was determined as 100%. In addition, the mortality at 4 ppm in test [5] was determined as 100%. Besides, in test [6], the pest or weed control at 100 g/ha was 100% and the pest or weed control at 500 g/ha was found to be 100%. For the same compound, the mortality at 100 ppm in test [7] came to 100%. Further, the mortality at 100 g/ha in test [8] is 100%.

`Cc1nc([C@H](C)NC(=O)c2cc(C(F)(F)F)cc(C3(C#N)CC3)c2)n(-c2ccc(Cl)cn2)n1` [II-50]: in test [1], the pest or weed control at 4 pg came to 100% and the pest or weed control at 0.02 mg was 100%. Besides, the pest or weed control at 5 µg/cm2 in test [2] stood at 100%. Further, in test [3], the mortality at 100 g/ha was determined as 100%. In test [4], the mortality at 100 g/ha was found to be 100%. The same compound had a mortality at 4 ppm in test [5] of 100%. Further, in test [6], the pest or weed control at 100 g/ha came out at 100% and the pest or weed control at 500 g/ha worked out at 100%. Besides, in test [7], the mortality at 100 ppm came out at 100%. This compound also returned a mortality at 100 g/ha in test [8] of 100%.
